The values below come from patent US4942256A, “Novel intermediates in the manufacture of novel thromboxane A2 antagonists” (National Research Development Corporation, priority 1988, dated 1990).

For orientation: IC50 means the midpoint of a concentration-inhibition curve. One may read the ED50 as the midpoint of the dose-response relation. As usually defined, the inhibition is the drop in the measured response relative to a control, in per cent. A high value points to a response far below the control.

The test system of experiment [1] is U-46619-induced platelet aggregation. Briefly: Inhibition of U-46619-induced platelet aggregation (rat), in vitro in rat platelet rich plasma. Format: cell-based. As to conditions: for IC50: 1 min preincubation at 37° C. The method, then:
a. Inhibition of U-46619-induced platelet aggregation (rat)
Platelet rich plasma (PRP) was prepared from heparanized whole blood (5 units/ml) drawn from the abdominal aorta of ether anesthetized rats. PRP was prepared by centrifugation (Sorvall RC2B, DuPont, Wilmington, Del.) of the whole blood at 150×g for 10 min. Platelet poor plasma (PPP) was prepared by centrifugation at 1200×g for 20 min. Aliquots of PRP and PPP were used to standardize the aggregometer (Payton, Buffalo, N.Y., model 300B) with the recorder (Riken Denshi 2 channel recorder, Payton, model SP H5P) for measurement of […] light transmittance, respectively.
Platelet aggregation was measured as an increase in light transmittance. PRP (390 μl aliquot+5 μl compound vehicle) was preincubated for 1 min. at 37° C., with stirring at 900 rpm in the aggregometer. The vehicle control response was obtained by adding U-46619 (Cayman Chemical, Ann Arbor, Mich., 1-2 units/cuvette/10 μl ) to the aliquot of PRP. Aggregation was monitored until maximum aggregation was achieved (approximately 3 min. following the addition of U-46619). Amount of aggregation was measured by grids on the strip chart.
Compounds were dissolved in either ethanol (ETOH) or Na2 CO3 (0.1M) and preincubated at the desired concentration in PRP for 1 min. at 37° C. with stirring. At the end of the preincubation, U-46619 was added and aggregation measured. Inhibition of aggregation by compound was calculated as percent inhibition of the control aggregation response to U-46619. Dose response curves were generated and IC50 's calculated by linear regression.

For experiment [2], the system named is collagen induced platelet aggregation. As to the kind of experiment: Inhibition of collagen induced platelet aggregation in dog PRP. Format: cell-based. Conditions: Canis lupus familiaris. On the procedure: c. Inhibition of collagen induced platelet aggregation in dogs by SC-44161 and SC-46984
Blood was collected into citrated vacutainers from the jugular veins of conscious dogs and centrifuged at 200×g for 7 min. PRP was separated and an aliquot (450 μl ) incubated 1 min. in the aggregometer (as described above). Collagen (50 μl, Helena Reagent, bovine tendon) was added and aggregation monitored for 5 min. Percent inhibition and IC50 's were determined as previously described.

Experiment [3] concerns U-46619 induced platelet aggregation. Briefly: Ex vivo inhibition of U-46619 induced platelet aggregation, intravenous (rat). Format: in vivo. As to conditions: for ED50: Platelet, iv, 0.5 min, i.v. bolus, blood sampled 30 sec. later. The method, then:
(§1) II. Ex vivo--(rat) Inhibition of U-46619 induced platelet aggregation
Rats were anesthetized with ether and the jugular vein exposed. Compound dissolved in 0.1M Na Carbonate was injected as a bolus into the jugular vein. Blood (5 ml, heparanized) was sampled 30 sec. later from the abdominal aorta. PRP was prepared by quick centrifugation (Eppendorf, model 5415 at 12,000 rpm for 5 sec.) PPP was prepared by centrifugation for 2 min. PRP was diluted 1:1 with PPP from, similarly treated animals. Aggregation was monitored for 5 min. and inhibition was determined as previously described.

Experiment [4] shares this test system. As to the kind of experiment: Ex vivo inhibition of U-46619 induced platelet aggregation, intragastric (rat). Format: in vivo. As to conditions: for ED50: read-out: I.G. ED50, ex vivo inhibition of U-46619 induced aggregation; for I.V./I.G. ratio: from the I.V. and the I.G. studies, rat ED50. On the procedure: as §1
Compounds dissolved in Na Carbonate were administered to conscious rats with an I.G. tube. Fifteen minutes post administration (time previously determined to show maximum effect), rats were anesthetized with ether and blood was sampled from the abdominal aorta. PRP was prepared as described in II a.

The test system of another experiment is human washed platelets. Briefly: Analysis of partial agonism with SC-46985 (human washed platelets). Format: cell-based. On the procedure:
b. Analysis of partial agonism with SC-46985 (human washed platelets)
(§2) Sixty ml of blood were drawn into 1/10 volume of CCD (100 mM Na Citrate and 136 mM glucose, pH 6.5 with HCl) and PRP prepared as described above. PRP was placed on ice for 15 min. One half of the volume of CCD was added and recentrifuged. The platelet pellet was gently resuspended in 1/2 the original volume of PRP in a 0° C. modified Tangen-Hepes-BSA buffer (145 mM NaCl, 5 mM KCl, 0.05 mM CaCl2, 0.1 mM MgCl2, 11 mM glucose, 15 mM Hepes, 1 mg/ml bovine serum albumin, pH adjusted to 7.4 with NaOH). The resuspended platelets were incubated undisturbed at 37° C. for 30 min. After incubation a platelet count was determined and adjusted to 3×10^8 cells/ml with the Tangen-Hepes-BSA buffer.
(§3) 425 μl of the washed human platelet suspension was incubated in the aggregometer in the presence of 16 mM CaCl2 (50 μl ) and SC-46985 for 5 and 10 min. […] (In a study similar to (a) above, aliquots of human washed platelets were incubated with various concentrations of SC-46985 and U-46619 to determine dose-related inhibition of aggregation).

Experiment [5] deals with human washed platelets stimulated with U-46619. As to the kind of experiment: Inhibition of U-46619 stimulated aggregation of human washed platelets by SC-46985. Format: cell-based. As to conditions: Platelet. On the procedure:
as §2, §3

Setting [6] is: Rattus norvegicus, Platelet, vehicle Na2CO3 (0.1M), (a) values are estimates based on all-or-none responses.
Setting [7] is: Platelet, po, 0.25 h, rat, intragastric, 15 min post administration.
Setting [8] is: Rattus norvegicus, Platelet, vehicle ETOH.

Structures are written as SMILES.

As for `CC(=NNC(=S)Nc1ccccc1)C1C2CCC(C2)C1CC=CCCCC(=O)O` (racemic) [SC-44161, (±)7-[3α[[(Phenylamino)thioxomethyl]hydrazono]ethyl]1α,4α-bicyclo[2.2.1]hept-2β-yl]-5Z-heptenoic acid], the IC50 is 70 nM in experiment [1] (setting [6]) and 11400 nM in experiment [2]. The “more potent when in aqueous solution than when dissolved in ethanol” value in experiment [1] (rat PRP, Na carbonate vs ETOH) was 5-10 fold. The figures for the ED50 in experiment [3] and in experiment [4] (setting [7]) were 0.031 mg/kg and 1.21 mg/kg, respectively. The I.V./I.G. ratio in experiment [4] is reported as 39.

As for `CC(=NNC(=S)Nc1ccccc1)[C@@H]1[C@H]2CC[C@H](C2)[C@H]1C/C=C\CCCC(=O)O` [SC-46984, 7-[3α-[1-[[(Phenylamino)thioxomethyl]hydrazono]ethyl]-1R, 1α,4α-bicyclo[2.2.1]hept-2β-yl]5Z-heptenoic acid], the IC50 in experiment [1] (setting [8]) is 50 nM; in experiment [1] (setting [6]) it was 0.7 nM; in experiment [2], 2090 nM. In experiment [1] (rat PRP, Na carbonate vs ETOH), the “more potent in aqueous solution than in ethanol” value is 10-50 times. The “times more potent than SC-44161 (in vitro)” value in experiment [1] (rat PRP, U-46619) is listed as “approximately 100 times”. Moreover, the values for the ED50 in experiment [3] and in experiment [4] (setting [7]) were 0.0087 mg/kg and 0.44 mg/kg, respectively. In addition, the “times more potent than SC-44161 (I.V.)” value in experiment [3] (i.v., ex vivo) is on record as “approximately 3.5 times”. Further, in experiment [4], the I.V./I.G. ratio was 51. Moreover, in experiment [4] (rat, intragastric, ex vivo), the “times more potent than SC-44161 (I.G.)” value is “approximately 2.8 times”.

For the molecule `CC(=NNC(=S)Nc1ccccc1)[C@H]1[C@@H]2CC[C@@H](C2)[C@@H]1C/C=C\CCCC(=O)O` [SC-46985], the IC50 in experiment [1] (setting [8]) is 970 nM; in experiment [1] (setting [6]), roughly 2500 nM; in experiment [5], 5600 nM. Further, the partial agonist activity entry in the experiment on human washed platelets (5 and 10 min. incubation) is “lack of partial agonist activity”. The “evidence of shape change or aggregation (partial agonism)” value in the experiment on human washed platelets (after 5 and 10 min. incubation) is given as “no evidence of shape change or aggregation”. Further, the ED50 in experiment [3] worked out at 0.045 mg/kg. The “times less potent than SC-44161 (I.V.)” value in experiment [3] (i.v., ex vivo) is “approximately 1.5 times”.

In experiment [1] (vehicle ETOH), `CC(=NNC(=S)Nc1ccccc1)C1C2CCC(C2)C1CC=CCCCC(=O)O` (stereo not shown) [SC-46986] registered an IC50 of 690 nM.

For the molecule `CC(=NNC(=S)Nc1ccccc1)[C@@H]1[C@H]2CC[C@H](C2)[C@H]1C/C=C/CCCC(=O)O` [SC-47721, 7-[3α-[1-[[(Phenylamino)thioxomethyl]hydrazono]ethyl]-1R, 1α,4α-bicyclo[2.2.1]hept-2β-yl]-5E-heptenoic acid], in experiment [1] (setting [6]), the IC50 is roughly 7.5 nM. For the same molecule, in experiment [1] (rat PRP, U-46619), the “potency compared with SC-46984 (in vitro)” value is “less potent than SC 46984” and the “times more potent than SC-44161 (in vitro)” value is 10-50 times. The molecule further gave an inhibition at 1 mg/kg in experiment [4] (Platelet, po, 0.25 h, rat, intragastric, 1 mg/kg, 15 min post administration) of 37.5%.
